Literature values as cited in patent US6908924B2, “N4-acylcytosine-1,3-dioxolane nucleosides for treatment of viral infections” (Pharmasset, Inc., priority 2001, dated 2005).

Tests used:
[1] = molecular target: HIV reverse transcriptase (HIV-RT) (Human immunodeficiency virus type 1 group M subtype B, UniProt P04585)
[2] = system: HIV-1; details: as a reverse transcriptase inhibitor (RTI)

Row | Structure (SMILES) | Ki [1] | inhibition of HIV-1 replication in vitro [2]
1 | Nc1nc2c(ncn2[C@H]2CO[C@@H](COP(=O)(O)OP(=O)(O)OP(=O)(O)O)O2)c(=O)[nH]1 [DXG-TP] | 19 nM | –
2 | Nc1nc(N)c2ncn([C@H]3CO[C@@H](CO)O3)c2n1 [DAPD, (−)-(2R,4R)-2-amino-9-[(2-hydroxymethyl)-1,3-dioxolan-4-yl]adenine] | – | selective inhibitor
